Data on two compounds can be found in paper PMC7509924, “Neuroprotective effect of Angelica gigas root in a mouse model of ischemic brain injury through MAPK signaling pathway regulation” (Chinese Medicine, 2020).

Data set [1] has as its system ERK and p38 in colon carcinoma cells. Also on record: method as in PMID 21170925. The following applies: cited from earlier work.
A short description of data set [2]: Pharmacokinetics of decursin in plasma after oral administration of RAGE. It counts as in vivo, SD rats. The method, then:
Quantification of decursin was performed using an Accela LC system (Thermo Fisher Scientific; MA, USA) equipped with an autosampler, degasser, and quaternary solvent pump. Decursin and IS were separated on a Hypersil GOLD C18 column (2.1 mm × 100 mm, 1.9 μm; Thermo Fisher Scientific, MA, USA) at 35℃. The flow rate was set at 300 μL/min with an injection volume of 5 μL. The mobile phase consisted of water (containing 0.1% formic acid, A) and acetonitrile (B) and the gradient elution applied was as follows: 30–60% (B) for 0–4 min, 60% (B) for 0.5 min, and then re-equilibrated to 30% (B) until the end of the analysis. An LCQ Fleet ion-trap mass spectrometer (Thermo Fisher Scientific; MA, USA) was used to detect compounds in the eluent using the electrospray ionization source in the positive-ion mode. MS conditions were as follows: sheath gas (nitrogen), 50 arbitrary units; auxiliary gas (nitrogen), 20 arbitrary units; spray voltage, 5.0 kV; capillary temperature, 300℃; and capillary voltage, 30.0 V. Quantification of the compound was performed in the selective ion monitoring mode at 329 m/z [M+H]^+ for decursin and 415 m/z [M+H]^+ for the IS. Data was processed using Excalibur (v. 2.1.0; Thermo Fisher Scientific, CA, USA). Accurately weighed decursin and IS were dissolved in methanol at a concentration of 100 μg/mL, and the solution was diluted with methanol to prepare working solutions for the construction of the calibration curve. Calibration standards were prepared using 150 μL of blank rat plasma spiked with 10 μL of working solutions and 10 μL of IS solution, which was extracted using ethyl acetate. Plasma samples were prepared using a liquid–liquid extraction method. An aliquot of 150 μL plasma sample was spiked with 10 μL of IS solution and 10 μL of methanol, and 800 μL of ethyl acetate was added. Extraction of decursin and IS was performed by vortex mixing for 2 min at 25℃, followed by centrifugation at 704 × g for 10 min at 20℃. The upper layer (ethyl acetate) was then transferred to a clean 1.5 mL polypropylene tube and evaporated using a nitrogen gas blowing concentrator (MGS–2200; EYELA, Miyagi, Japan). The residue obtained after evaporation was reconstituted in 100 μL of methanol, vortex mixed for 2 min, and centrifuged at 704 × g for 10 min at 20℃. The supernatant was transferred to a glass vial and a 5 μL aliquot was injected into the UPLC–MS/MS system. […] Blood samples ([…]) were collected from a jugular vein in heparinized tubes before the administration, and 0.17, 0.5, 1, 2, 4, 6, 8, 12, 24, or 48 h after intragastric administration. Collected blood samples were immediately centrifuged at 704 × g for 10 min, and 150 μL aliquots of supernatant plasma were transferred to clean tubes and stored at -20 °C until analysis. The pharmacokinetic parameters of decursin were calculated using plasma concentration of decursin versus time data using PKSolver (a free add-in program for Microsoft Excel).

The mark [3] stands for this setting: oral RAGE 100 mg/rat, mean ± SD, n = 6.

Molecules are shown by their SMILES.

A word on the half-life: it is how long it takes for the measured level to halve. The AUC(0-t) is exposure summed from dosing to a finite time, without extrapolation to infinity. Lower therefore signals low exposure. By AUC(0-inf) is commonly meant the area under the concentration-time curve extrapolated to infinity. What is called Cmax is the highest concentration seen after dosing. By Tmax is commonly meant the time from dosing to the highest level. With `CC(C)=CC(=O)O[C@H]1Cc2cc3ccc(=O)oc3cc2OC1(C)C` [decursin], the “activities of ERK and p38” value in data set [1] is “inhibited”. The compound also gave a half-life in data set [2] (SD, rat, after oral administration of RAGE, as restated in the discussion) of 8.28 h. Further, the AUC(0-t) in data set [2] (oral RAGE 100 mg/rat, 0 to 48 h, mean ± SD, n = 6) turned out to be 1190 ± 324 ng·h/mL. Also, the MRT last in data set [2] (oral RAGE 100 mg/rat, 0 to 48 h, mean ± SD, n = 6, read-out: MRT0-t) stood at 5.43 ± 0.581 h. In data set [2] (oral RAGE 100 mg/rat, last measured concentration, mean ± SD, n = 6, read-out: Clast), the concentration at 48 h amounted to 2.62 ± 0.665 ng/mL. Also, in data set [2] (setting [3]), the area under the curve AUC(0-inf) is 1220 ± 326 ng·h/mL, the maximum concentration (Cmax) amounted to 408 ± 85.7 ng/mL, the Tmax stood at 1.75 ± 1.25 h and the half-life is 8.28 ± 0.538 h. Also, the MRT inf in data set [2] (oral RAGE 100 mg/rat, mean ± SD, n = 6, read-out: MRT0-∞) is 6.9 ± 0.954 h.
With `CC1(C)Oc2cc3oc(=O)ccc3cc2C[C@@H]1O` [decursinol], in data set [1], the “activities of ERK and p38” value is “inhibited”.
